{
  "source": "patent US20230263748A1",
  "about": "“APPLICATION OF BENFLUMETOL AND DERIVATIVES THEREOF IN TREATMENT OF CORONAVIRUS INFECTION” (ACADEMY OF MILITARY MEDICAL SCIENCES, priority 2020, published 2023)",
  "key": {"SARS-CoV-2": {"system": "SARS-CoV-2", "type": "cell-based", "settings": "for Viral genome copy number (MOI = 0.05): supernatant"}, "Vero E6 cells": {"system": "Vero E6 cells", "assay": "Detection of drug cytotoxicity by CCK-8 kit", "type": "cell-based", "settings": "for Cell viability (% of negative control): Vero E6, 48 h", "procedure": "The detection of drug cytotoxicity was performed by CCK-8 kit (Beoytime). Specific steps were as follows: • (1) 1×10^4 Vero E6 (ATCC) cells were inoculated in a 96-well plate and cultured at 37° C. for 8 hours. • (2) The drug was diluted with DMSO to obtain a stock solution with an appropriate concentration, and then diluted with MEM medium (purchased from Gibco, Cat. No. 10370021) containing 2% FBS (purchased from Gibco, Cat. No. 16000044) to the same concentration as that for the drug treatment. The original medium in the 96-well plate was discarded, 100 μL of drug-containing MEM medium was added to the cells, and three replicate wells were set for each concentration. Negative control (adding DMSO and medium to the cell wells, without adding drug) and blank control (no cells, adding DMSO and medium) were set. After the drug was added, the cells were cultured at 37° C. for 48 hours. • (3) 20 μL of CCK-8 solution (Beoytime) was added to the wells to be tested, mixed gently without generating air bubbles, and incubation was continued at 37° C. for 2 hours. OD450 was read on a microplate reader (purchased from Molecular Devices, model: SpectraMax M5), and cell viability was calculated:\nCell viability (%)=(A(drug treatment group)−A(blank control))/(A(negative control)−A(blank control))×100% • wherein A represents reading of microplate reader."}},
  "note": "Read-outs that look alike come from different tables or passages of the source.",
  "data": [
    {"smiles": "CCCCN(CCCC)CC(O)c1cc(Cl)cc2c1-c1ccc(Cl)cc1/C2=C/c1ccc(Cl)cc1", "note": "(centres unmarked) [benflumetol]", "values": [
      {"measurement": "Viral genome copy number (MOI = 0.05)", "setting": "SARS-CoV-2; 3.13 μM, Vero E6 cells, 48 h after infection", "result": 125717580},
      {"measurement": "Viral genome copy number (MOI = 0.05)", "setting": "SARS-CoV-2; 6.25 μM, Vero E6 cells, 48 h after infection", "result": 87462582},
      {"measurement": "Viral genome copy number (MOI = 0.05)", "setting": "SARS-CoV-2; 12.5 μM, Vero E6 cells, 48 h after infection", "result": 87790130},
      {"measurement": "Viral genome copy number (MOI = 0.05)", "setting": "SARS-CoV-2; 25 μM, Vero E6 cells, 48 h after infection", "result": 48801530},
      {"measurement": "Viral genome copy number (MOI = 0.05)", "setting": "SARS-CoV-2; 50 μM, Vero E6 cells, 48 h after infection", "result": 20512679},
      {"measurement": "Viral genome copy number (MOI = 0.05)", "setting": "SARS-CoV-2; 100 μM, Vero E6 cells, 48 h after infection", "result": 2927366},
      {"measurement": "Inhibition of viral RNA load on cells, dose dependence (in words)", "setting": "SARS-CoV-2; Vero E6 cells, 48 h after infection, FIG. 1", "result": "the inhibitory activity was dose-dependent"},
      {"measurement": "Inhibition of replication of the SARS-CoV-2 virus genome in the infection supernatant (in words)", "setting": "SARS-CoV-2; at 100 μM, 50 μM and 25 μM", "result": "effectively inhibit the replication of the SARS-CoV-2 virus genome"},
      {"measurement": "Cell viability (% of negative control)", "setting": "Vero E6 cells; 0.78 μM", "result": 92.88, "unit": "%"},
      {"measurement": "Cell viability (% of negative control)", "setting": "Vero E6 cells; 1.56 μM", "result": 94.55, "unit": "%"},
      {"measurement": "Cell viability (% of negative control)", "setting": "Vero E6 cells; 3.13 μM", "result": 96.69, "unit": "%"},
      {"measurement": "Cell viability (% of negative control)", "setting": "Vero E6 cells; 6.25 μM", "result": 106.70, "unit": "%"},
      {"measurement": "Cell viability (% of negative control)", "setting": "Vero E6 cells; 12.5 μM", "result": 108.69, "unit": "%"},
      {"measurement": "Cell viability (% of negative control)", "setting": "Vero E6 cells; 25 μM", "result": 113.54, "unit": "%"},
      {"measurement": "Cell viability (% of negative control)", "setting": "Vero E6 cells; 50 μM", "result": 115.52, "unit": "%"},
      {"measurement": "Cell viability (% of negative control)", "setting": "Vero E6 cells; 100 μM", "result": 122.12, "unit": "%"},
      {"measurement": "Toxic effect on the cells (in words)", "setting": "Vero E6 cells; all test concentrations", "result": "no toxic effect on the cells at all concentrations"}
    ]}
  ]
}
